The first experiment concerns Utrophin A promoter linked to a luciferase reporter gene. The experiment is described as follows: Luciferase reporter assay (murine H2K cells), H2K/mdx/Utro A reporter cell line. It is filed as cell-based. The following applies: 48 h; test compound concentration 3 μM; mdx mouse H2K Utrophin A reporter cells; read-out: Activity (luciferase level relative to control). Put shortly: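 Immortalized mdx mouse H2K myoblasts stably carrying ~5 kb utrophin A promoter–luciferase construct, kept at 33 °C, 10% CO2. Compound added 24 h after plating, typically at 10 μM final, for 48 h; luciferase measured by cell lysis and luminescence.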
In the case of `CS(=O)(=O)c1ccc(Cn2nc(C(=O)Nc3ccc(O)cc3)c3ccccc32)cc1` [Compound 88, N-(4-hydroxyphenyl)-1-(4-(methylsulfonyl)benzyl)-1H-indazole-3-carboxamide], the activity at 3 µM was < 200%.

Staying with this experiment, now noted: 48 h; test compound concentration 10 μM; mdx mouse H2K Utrophin A reporter cells; read-out: Activity (luciferase level relative to control).
Regarding `Cc1ccc(NC(=O)c2nn(Cc3ccc(S(C)(=O)=O)cc3)c3ccccc23)cc1` [Compound 108, 1-(4-(methylsulfonyl)benzyl)-N-p-tolyl-1H-indazole-3-carboxamide], the activity at 10 µM is > 401%. Same read-out and setting: the same measure for `COc1ccc(NC(=O)Nc2nn(Cc3ccc(COc4ccc5c(c4)OCO5)cc3)c3ccc(C(F)(F)F)cc23)c(OC)c1` [Compound 31, 1-(1-(4-((benzo[d][1,3]dioxol-5-yloxy)methyl)benzyl)-5-(trifluoromethyl)-1H-indazol-3-yl)-3-(2,4-dimethoxyphenyl)urea]: < 200%.

With `CC(=O)Nc1ccc(NC(=O)c2nn(Cc3ccc(C(F)(F)F)cc3)c3ccccc23)cc1` [Compound 109, N-(4-acetamidophenyl)-1-(4-(trifluoromethyl)benzyl)-1H-indazole-3-carboxamide], the activity at 10 µM is < 200%. Regarding `CCc1ccc(Cn2nc(C(=O)Nc3ccc4c(c3)OCO4)c3ccccc32)cc1` [Compound 132, N-(benzo[d][1,3]dioxol-5-yl)-1-(4-ethylbenzyl)-1H-indazole-3-carboxamide], the activity at 10 µM fell in the range of 201 to 300%.

For the compound `COc1ccc(NC(=O)c2nn(CCOc3ccccc3)c3ccccc23)cc1` [Compound 56, N-(4-methoxyphenyl)-1-(2-phenoxyethyl)-1H-indazole-3-carboxamide], the activity at 10 µM is < 200%. For the compound `O=C(NCc1ccccc1F)Nc1nn(Cc2cc3c(cc2Cl)OCO3)c2ccccc12` [Compound 47, 1-(1-((6-chlorobenzo[d][1,3]dioxol-5-yl)methyl)-1H-indazol-3-yl)-3-(2-fluorobenzyl)urea], the activity at 10 µM was < 200%. Still for that read-out and setting: the figure for `NC(=O)c1ccc(NC(=O)c2nn(Cc3ccc(S(=O)(=O)N4CCOCC4)cc3)c3ccccc23)cc1` [Compound 64, N-(4-carbamoylphenyl)-1-(4-(morpholinosulfonyl)benzyl)-1H-indazole-3-carboxamide] is < 200%; for `C#CCN(C)S(=O)(=O)c1ccc(Cn2nc(C(=O)Nc3ccc(N4CCCCC4)cc3)c3ccccc32)cc1` [Compound 6, 1-(4-(N-methyl-N-(prop-2-ynyl)sulfamoyl)benzyl)-N-(4-(piperidin-1-yl)phenyl)-1H-indazole-3-carboxamide] it is 301 to 400%; for `CON(C)S(=O)(=O)c1ccc(Cn2nc(C(=O)Nc3nccs3)c3ccccc32)cc1` [Compound 36, 1-(4-(N-methoxy-N-methylsulfamoyl)benzyl)-N-(thiazol-2-yl)-1H-indazole-3-carboxamide] it is < 200%. With `CN(c1ccccc1)S(=O)(=O)c1ccc(Cn2nc(C(=O)NOCc3ccccc3)c3ccccc32)cc1` [Compound 24, N-(benzyloxy)-1-(4-(N-methyl-N-phenylsulfamoyl)benzyl)-1H-indazole-3-carboxamide], the activity at 10 µM is < 200%. On to `O=C(Nc1ccc2c(c1)OCO2)c1nn(Cc2cccc(C(=O)N3CCOCC3)c2)c2ccccc12` [Compound 100, N-(benzo[d][1,3]dioxol-5-yl)-1-(3-(morpholine-4-carbonyl)benzyl)-1H-indazole-3-carboxamide], for which the activity at 10 µM is < 200%.

Turning to `Cc1ccc(NC(=O)c2nn(Cc3ccc(S(C)(=O)=O)cc3)c3ccccc23)cn1` [Compound 133, N-(6-methylpyridin-3-yl)-1-(4-(methylsulfonyl)benzyl)-1H-indazole-3-carboxamide], the activity at 10 µM was < 200%.

The values above are taken from patent publication US20100305120A1, “COMPOUNDS FOR TREATING MUSCULAR DYSTROPHY” (BIOMARIN IGA LIMITED, priority 2008, published 2010).
